Columns and labels:
yeast = assay: Effect of biocide on yeast level (SDA medium plate count); format: cell-based; conditions: biocide concentration 50 ppm, 2 hours after contact
From the text: (§1) SDA medium is synthetic defined agar, and PCA medium is plate count agar. Dow Antimicrobial™ 7287 is a composition containing 20 percent 2,2-dibromo-3-nitrilopropionamide (DBNPA), sold by The Dow Chemical Company.

bacteria = assay: Effect of biocide on bacteria level (PCA medium plate count); format: cell-based; conditions: biocide concentration 50 ppm, 2 hours after contact
From the text: as §1

Compound | Yeast level (yeast) | Bacteria level (bacteria)
O=CCCCC=O [UCARCIDE ™ 250, glutaraldehyde] | 5.0 × 10^4 cfu/ml | 5.0 × 10^5 cfu/ml
Diethyl Carbamate | <1.0 × 10^4 cfu/ml | 2.6 × 10^7 cfu/ml

From patent US8609381B2, “Methods to control bacterial growth in fermentation processes” (Dow Brasil Sudeste Industrial Ltda., priority 2007, dated 2013)
